Laboratory results reported in patent publication US20260272988A1, “COMPOSITION COMPRISING MILK EXTRACELLULAR VESICLES AND GALACTOSE” (FrieslandCampina Nederland B.V., priority 2023, published 2026).

Tested on: C2C12 myotubes
Assay: Seahorse mito-stress test, oxygen consumption rate (OCR) in differentiated C2C12 myotubes
Type: cell-based
Conditions: for basal respiration (OCR): C2C12 myotubes exposed 24 hours, compared to control and vehicle control (PBS), FIG. 1 / FIG. 2
Protocol: The execution of the “Seahorse” experiment as used in this example is explained in more detail in Traba et al. (2016) J. Vis. Exp. (117), e54918 especially in FIG. 1 and text relating thereto, and in Rose S, et al. (2014) Oxidative Stress Induces Mitochondrial Dysfunction in a Subset of Autism Lymphoblastoid Cell Lines in a Well-Matched Case Control Cohort. PLoS ONE 9(1): e85436. doi:10.1371/journal.pone.0085436. Briefly, in the Seahorse essay, the Oxygen Consumption Rate (OCR) is measured before and after the addition of inhibitors to derive several parameters of mitochondrial respiration. Initially, baseline cellular OCR is measured, from which basal respiration can be derived by subtracting non-mitochondrial respiration. Next oligomycin, a complex V inhibitor, is added and the resulting OCR is used to derive ATP-linked respiration (by subtracting the oligomycin rate from baseline cellular OCR) and proton leak respiration (by subtracting non-mitochondrial respiration from the oligomycin rate). Next carbonyl cyanide-p-trifluoromethoxyphenyl-hydrazon (FCCP), a protonophore, is added to collapse the inner membrane gradient, allowing the ETC to function at its maximal rate, and maximal respiratory capacity is derived by subtracting nonmitochondrial respiration from the FCCP rate. […] Mitochondrial reserve capacity is calculated by subtracting basal respiration from maximal respiratory capacity. C2C12 cells were routinely cultured in High Glucose Dulbecco's Modified Eagle's Medium (DMEM) supplemented with 10% (v/v) fetal calf serum (FCS), 2 mM glutamine, 25 mM HEPES pH 7.2 and 1% (v/v/v) pen/strep/amphotericin B at 5% CO2 and 37 degrees Celsius. For Seahorse experiments, C2C12 myoblasts (passage 10-20, ATCC) were plated in the morning in XFe96 Seahorse culture plates at a density of 30.000 cells/well. Cells were kept in the flow cabinet for 1 h before being transferred to the incubator. After approximately 6-8 h cells, culture medium was replaced with C2C12 differentiation medium (DMEM with 2% horse serum). C2C12 cells were allowed to differentiate for 5 to 7 days. On the day before the Seahorse run, myotubes were exposed to different nutrients and/or Extracellular Vesicles (mEVs) for 24 hours. Exposure medium was prepared in C2C12 differentiation medium. Galactose and glucose were supplemented to differentiation medium from 1M stocks in H2O. […] In detail, following calibration and equilibration, plates were analyzed in measure/mix cycles of 3 minutes/2 minutes, respectively, in 180 ul Seahorse assay medium. […] In the final injection the nuclear fluorescent stain, Hoechst (40 uM), was also injected, to allow for cell number quantification. […] Images were analyzed using in-house generated scripts in ImageJ and R for processing data. […]

Row | SMILES | basal respiration (OCR) | effect of a higher concentration on basal respiration (C2C12 myotubes, 1.4, 2.75, 5.5 mM, FIG. 2)
1 | O=C[C@H](O)[C@@H](O)[C@@H](O)[C@H](O)CO [Sample 6, Galactose] | increase | –
2 | O=C[C@H](O)[C@@H](O)[C@@H](O)[C@H](O)CO [Sample 7, Galactose] | increase | –
3 | O=C[C@H](O)[C@@H](O)[C@@H](O)[C@H](O)CO [Sample 8, Galactose] | increase | –
4 | O=C[C@H](O)[C@@H](O)[C@@H](O)[C@H](O)CO [galactose, D-galactose] | – | increases
